Measurements reported in patent US20240383973A1, “METHODS FOR TREATING CALCITONIN GENE-RELATED PEPTIDE (CGRP) - EXPRESSING CANCERS” (The Board of Regents of the University of Oklahoma, priority 2022, published 2024).
Entries after “also recorded” stand apart in the source; their conditions may differ.

Key:
[1] = system: Py230 triple negative breast cancer cell line; experiment: Py230 tumor transplant in B6 mice, BIBN4096 vs DMSO: tumor growth and tumor mass; format: in vivo; conditions: vs DMSO mock
Experimental: (§1) B6 mice were transplanted with Py230 tumor cells in the 4th mammary fat pad. Beginning on Day 28 post-transplant, mice were either injected with the CGRP inhibitor BIBN4096 in DMSO (white) or DMSO alone (black). 63 days post-transplant, tumors were isolated and tumor mass (FIG. 2A) determined. Tumors were digested and the ratio of activated CD44^hi CD43^+CD8 T cells to FoxP3^+ Tregs determined (FIG. 2B). PD-1 expression on tumor-isolated CD8+ T cells was measured by flow cytometry (FIG. 2C). Symbols represent individual mice, composite of two experiments. *p<0.05, **p<0.01.
B6 mice were transplanted with Py230 triple negative breast cancer cell line, tumors were measured 3×/week for 63 days. BIBN4096 or DMSO vehicle control (mock) were administered 1×/week starting on day 28 over a period of 4 weeks. Tumor masses were measured at day 63. FIG. 10A. Tumor growth curves of BIBN4096 treated B6 mice and mock treated controls. FIG. 10B. Tumor masses of BIBN4096 treated mice and mock treated controls. (n=10/group), Mann-Whitney Test, *p<0.05.

[2] = system: Py230 murine mammary tumors; experiment: Anti-CGRP/anti-PD-1 combination treatment effect on tumor volume and tumor regression; format: in vivo; conditions: treatment day 28-56, followed to day 70; 10 mice per group
Excerpt: The anti-PD-1 compound is a rat IgG2a anti-mouse PD-1 antibody, clone RMP1-14, obtained from Bio X Cell. The CGRP inhibitor is olcegepant. The isotype control is a rat IgG2a, clone 2A3, raised against human CD25, obtained from Bio X Cell.
Mice were transplanted with Py230 murine mammary tumors in the mammary fat pad. 28 days after tumor implantation the drug treatments were initiated. Treatments were: (1) Mock—isotype control and vehicle control, (2) CGRP inhibitor+isotype control, (3) anti-PD-1+vehicle control, and (4) Combination: CGRP inhibitor+anti-PD-1. Treatments were terminated 56 days after transplantation. The anti-PD-1 compound was a rat IgG2a anti-mouse PD-1 antibody, clone RMP1-14, obtained from Bio X Cell, the CGRP inhibitor was olcegepant, and the isotype control was a rat IgG2a, clone 2A3, raised against human CD25, obtained from Bio X Cell. Tumor volume, as determined by caliper measurement, was measured every other day until day 70 post-transplant. Average tumor mass of 10 individuals across two experiments is depicted (FIG. 4). The results (FIG. 5) also indicated the numbers of mice in the 4 treatment groups that experienced either tumor progression (i.e., continual growth of tumor), tumor stagnation (cessation of growth for at least 3 weeks), or tumor regression (tumor no longer palpable) in each cohort. […]

[3] = system: tumor infiltrating T cells and B cells; experiment: Flow cytometric analysis of tumor-isolated immune cells after BIBN4096 treatment; format: in vivo, mice; conditions: day 63, flow cytometry; vs mock
Experimental: as §1
B6 mice were transplanted with Py230 triple negative breast cancer cell line, tumors were measured 3×/week for 63 days. BIBN4096 or DMSO vehicle control (mock) were administered 1×/week starting on day 28 over a period of 4 weeks. Tumor was passed through a 70 µm cell strainer and single cell suspension was stained for flowcytometric analysis. FIG. 11A. BIBN4096 treated mice have a higher ratio of activated CD8^+ T cells to regulatory T cells (T reg) compared to the mock treated controls. FIG. 11B. […] FIG. 11C. […] FIG. 11D. Tumor infiltrating T cell subtypes at day 63 in BIBN4096 and mock treated controls. (n=15 group) Mann-Whitney Test, *p<0.05, **p<0.01, ****p<0.0001, n.s. not significant.

## NCCCC[C@H](NC(=O)[C@@H](Cc1cc(Br)c(O)c(Br)c1)NC(=O)N1CCC(N2Cc3ccccc3NC2=O)CC1)C(=O)N1CCN(c2ccncc2)CC1 [BIBN4096, Olcegepant]
[1]; B6 mice, Py230, BIBN4096 1x/week from day 28 for 4 weeks, tumors measured for 63 days
  tumor growth: inhibits tumor growth; also recorded: stops growth of triple negative breast cancer
[1]; day 63 post-transplant
  tumor mass: decreases tumor mass
[2]
  tumor progression (continual growth of tumor), share of tumors: most tumors continued to progress
  tumor stagnation (cessation of growth for at least 3 weeks), share of tumors: 30%
[3]
  PD-1 expression on activated CD8+ T cells from tumor: increased expression
  ratio of activated CD8+ T cells to regulatory T cells (Treg) in tumor: higher ratio
  tumor infiltrating B cells: increased infiltration; also recorded: enhances CD8+ T cell activation and tumor infiltrating B cells
